Patent US4353910A, “Derivatives of 4,5,6,7-tetrahydroisoxazolo [5,4-c] pyridine-3-one, pharmaceutical compositions and methods of treatment” (priority 1981, dated 1982)

Legend:
[1] = system: isoniazide-induced seizures in mice; experiment: Isoniazide antagonism (isoniazide 300 mg/kg s.c. induced convulsions); assay type: in vivo, mouse; parameters: unit: mg/kg; details: i.p. test compound, table does not say whether MED or ED50
Protocol: Isoniazide 300 mg/kg s.c.
Five mice are used for each dose level.
Immediately after administration of test substance, isoniazide 300 mg/kg is injected s.c. This dose of isoniazide induces intermittent tonic clonic seizures within 60 minutes.
The calculations are performed as an "on line procedure" on the EDP-terminal. […] ED50 is determined as the dose in mg/kg which increases the time 50%.

mouse pain threshold = experiment: Mouse grid shock (analgesic effect, pain threshold); assay type: in vivo; details: male mice, + not defined
Protocol: The mouse grid consists of a perspex cage with wire grid bottom and a perspex lid, on which is placed a microphone sensitive to the frequency of a mouse-squeak. A stimulator with motordriven potentiometer applies a sequence of square wave impulses of continuously increasing milliamperage to the grid. Frequency of impulses 20 cycles/sec., duration 5 msec. Milliamperage is recorded on a digital amperemeter connected to the stimulator. Activation of the microphone by a mouse-squeak cuts off the current and the final milliamperage appear on the meter.
Five mice are used for each dose level. Each mouse serves as its own control.
Prior to the administration of test substance the animals are placed on the grid one at a time and the pain threshold is determined by increasing the current intensity until the mouse squeaks. The pain threshold may be read on the milliamperemeter.
Fifteen minutes and 30 minutes after administration of test substance the mice are tested again and the pain thresholds recorded.
Analgesic effect is present when the pain threshold is increased over the pre-dosing value (control value). The results are stated as % increase in pain threshold calculated on the basis of the control value. The registration can also be done as an on-line procedure. […]

[2] = molecular target: ^3 H-GABA binding to rat brain membranes; experiment: ^3 H-GABA binding to rat brain membranes; details: 10 nM ^3 H-GABA, on ice 5 min
Protocol: 0.32 M sucrose (made fresh every day)
0.05 N Tris-citrate buffer (pH ~6.8)
^3 H-GABA=aminobutyric acid, γ-2,3-^3 H(N) approx.
35 Ci/mmol, from New England Nuclear
(diluted daily to 1 μM in water)
A. Preparation of membranes
Rats are killed by a blow to their head, exsanguinated and their brains removed and cooled in icecold saline. After rinsing and weighing two brains are pooled and homogenized in 40 ml of icecold 0.32 M sucrose using a motor-driven homogenizer with teflon pestle (6 strokes up and down, slow speed rotation).
The samples are centrifuged for 10 min. at 900 g, and thereafter the supernatants are centrifuged for 20 min. at 17,000 g (4° C.). […]
Incubation tubes in duplicate receive on ice 780 μl of water, 200 μl of drug dissolved in water, 20 μl of 1 μM ^3 H-GABA (final concentration of ^3 H-GABA in tubes=10 nM) and 1000 μl of the membrane suspension. […] Ten ml of Instagel or Lumagel containing 10 ml of acetic acid per 1 are added, and the radioactivity are determined by liquid scintillation counting. The unspecific binding of ^3 H-GABA is determined by incubating the samples with 1 mM of GABA. […]
The means of controls and 1 mM GABA samples are calculated. […] The IC50-values are determined as the concentrations, at which the binding is 50 percent of the total binding minus the unspecific binding.

[3] = THIP, European Patent Application No. 78 100 191.2; cited from earlier work
[4] = THIP, prior art; cited from earlier work

Row | Compound | Isoniazide antagonism [1] | other results
1 | NC(=O)n1oc2c(c1=O)CCNC2 [Example 5, 2-Carbamoyl-4,5,6,7-tetrahydroisoxazolo[5,4-c]-pyridine-3-one] | 5.8 | 
2 | CC(=O)n1oc2c(c1=O)CCNC2 [Example 3, 2-Acetyl-4,5,6,7-tetrahydroisoxazolo[5,4-c]-pyridine-3-one] | weak effect | Mouse grid shock (mouse pain threshold): no effect; IC50 [2]: > 100 µM
3 | Oc1noc2c1CCNC2 [THIP, 4,5,6,7-tetrahydroisoxazolo[5,4-c]pyridine-3-ol] | 1.3 | GABA-related activity [3]: having GABA-related activity; duration of action [4]: relatively shortacting; side effects [4]: some side effects
4 | CNC(=O)n1oc2c(c1=O)CCNC2 [Example 6, 2-(N-methylcarbamoyl)-4,5,6,7-tetrahydroisoxazolo[5,4-c]pyridine-3-one] | 1.3 | 
5 | O=C(NC1CCCCC1)n1oc2c(c1=O)CCNC2 [Example 7, 2-(N-cyclohexylcarbamoyl)-4,5,6,7-tetrahydroisoxazolo[5,4-c]pyridine-3-one] | 2.1 | 
